According to US20190308988A1, “OPIOID RECEPTOR ANTAGONIST PRODRUGS” (Nirsum Laboratories, Inc., priority 2017, published 2019):
In brackets after ≈: the same amount, converted by molar mass.

What was measured:
[1] = target: T1, MOR (Homo sapiens, UniProt P35372); test: Opioid receptor binding assay, MOR ([3H]DAMGO)
T1 construct: expressed in transfected cells
Protocol: (§1) Receptor binding assays were performed to assess the ability of compounds to inhibit binding to radiolabeled ligand.
(§2) The stable cell lines were established and prepared cell membrane obtained using these cell lines.
(§3) 1) Transfer 1 μl of specified concentration compound to assay plate according to the plate map for nonspecific binding. Transfer 1 μl of DMSO to assay plate according to plate map for total binding. 2) Follow the plate map. Dispense 99 μl of membrane stocks into the plate. 3) Add 100 μl of radio ligand. 4) Seal the plates. Incubate at RT for 1 hour. 5) Soak the Unifilter-96 GF/C filter plates with 50 μl of 0.3% PEI per well for at least 0.5 hour at room temperature. 6) When binding assays are completed, filter the reaction mixture through GF/C plates using Perkin Elmer Filtermate Harvester, and then wash each plate for 4 times with cold wash buffer. 7) Dry the filter plates for 1 hour at 50 degrees. 8) After drying, seal the bottom of the filter plate wells using Perkin Elmer Unifilter-96 backing seal tape. Add 50 μl of Perkin Elmer Microscint 20 cocktail. Seal top of filter plates with Perkin Elmer TopSeal-A sealing film. 9) Count ^3H trapped on filter using Perkin Elmer MicroBeta2 Reader second day. 10) Analyze the data with GraphPad Prism 5. Calculate the “Inhibition [% Control]” using the equation: % Inh=(1−Background subtracted Assay value/Background subtracted HC value)*100.

[2] = Liver S9 fraction stability, dog; assay type: in vitro ADME; settings: dog liver S9 1.0 mg/ml, 2 μM, 37° C.
Protocol: (§4) Liver S9 fraction stability determination of the test compounds in dog, cynomolgus monkey and human is performed using HPLC-MS. Test compound (2 μM, 0.1% DMSO, 1% Methanol final concentration) was assessed for stability in a 50 μl phosphate buffer containing 1.0 mg/ml S9 protein from each of the three species and 5 mM D-saccharic acid-1, 4-lactone. Samples were incubated at 37° C. for 60 minutes and the % compound remaining was assessed.

[3] = Solubility determination in oil (Table 10); settings: thermodynamic from solid; for solubility at 24 h: 25 °C, Heating Temp. 60 °C, Obs. Temp. 25 °C; for solubility / solubility thermodynamic: 40 °C, Heating Temp. 40 °C, Obs. Temp. 40 °C; for solubility thermodynamic: water, Equilibrium solubility: Water
Protocol: A known amount of test substance (˜40 mg) was weighed into the vial, 100 μL of oil was added and heated to 60° C. and then system was slurried to reach equilibrium. […] Extra oil was added into the vial once compound precipitated out and then the system was re-equilibrated at 1000 rpm at room temperature (25° C.). Final concentration was determined by HPLC method as described below in Table 6a and 6b.

[4] = target: T2, DOR (Homo sapiens, UniProt P41143); test: Opioid receptor binding assay, DOR ([3H]-DADLE)
T2 construct: expressed in transfected cells
T2 sequence (P41143 whole entry): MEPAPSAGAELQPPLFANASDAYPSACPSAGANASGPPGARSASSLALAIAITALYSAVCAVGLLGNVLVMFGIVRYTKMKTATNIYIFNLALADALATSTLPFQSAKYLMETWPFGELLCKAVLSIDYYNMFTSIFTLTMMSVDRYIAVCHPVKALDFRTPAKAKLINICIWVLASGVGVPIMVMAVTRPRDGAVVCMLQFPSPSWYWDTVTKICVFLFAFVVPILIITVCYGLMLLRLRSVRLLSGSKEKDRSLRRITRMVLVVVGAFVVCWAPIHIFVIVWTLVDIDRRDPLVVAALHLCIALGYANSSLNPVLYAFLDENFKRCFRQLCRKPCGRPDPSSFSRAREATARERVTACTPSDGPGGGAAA
Protocol: as §1, §2, §3

[5] = Rat pharmacokinetic studies, intramuscular administration; assay type: in vivo, male Sprague Dawley Rats; settings: male, Sprague Dawley, rat, plasma, im; for AUC(0-inf): read-out: AUC0-inf (ng · h/mL) prodrug; for half-life: read-out: Half-life t1/2 (hour) prodrug (converted)
Outline: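 Male Sprague Dawley rats (n=3) received intramuscular dosing of a 400 mg base equivalents/ml formulation in sesame oil + 1% benzyl alcohol. Plasma, precipitated with ACN, quantified by LC-MS/MS; non-compartmental analysis gave Cmax, Tmax, T1/2, AUC and MRT.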

[6] = Liver S9 fraction stability, human; assay type: in vitro ADME; settings: human liver S9 1.0 mg/ml, 2 μM, 37° C.
Protocol: as §4

[7] = target: T3, KOR (Homo sapiens, UniProt P41145); test: Opioid receptor binding assay, KOR ([3H]Diprenorphine)
T3 construct: expressed in transfected cells
T3 sequence (P41145 whole entry): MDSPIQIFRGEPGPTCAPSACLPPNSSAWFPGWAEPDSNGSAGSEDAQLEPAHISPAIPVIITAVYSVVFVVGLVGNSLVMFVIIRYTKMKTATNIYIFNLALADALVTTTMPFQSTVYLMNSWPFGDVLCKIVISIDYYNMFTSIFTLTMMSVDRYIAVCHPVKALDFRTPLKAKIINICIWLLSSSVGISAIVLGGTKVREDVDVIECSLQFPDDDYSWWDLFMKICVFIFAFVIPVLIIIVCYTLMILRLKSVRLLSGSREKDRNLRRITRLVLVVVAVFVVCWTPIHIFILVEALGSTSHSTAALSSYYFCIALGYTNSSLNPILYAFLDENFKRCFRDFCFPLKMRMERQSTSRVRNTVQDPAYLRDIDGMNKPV
Protocol: as §1, §2, §3

[8] = Dog pharmacokinetic studies, deep intramuscular administration; assay type: in vivo, Beagle dogs; settings: Beagle, dog, plasma, im; for AUC(0-inf): read-out: AUC0-inf (ng · h/mL) prodrug; for half-life: read-out: Half-life t1/2 (hour) prodrug (converted)
Outline: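 Beagle dogs (n=3) dosed by deep intramuscular injection into quadriceps or biceps femoris, formulation 400 mg base equivalents/mL in sesame oil + 1% benzyl alcohol, under propofol sedation. Plasma quantified by LC-MS/MS; non-compartmental analysis for Cmax, Tmax, T1/2, AUC and MRT.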

[9] = Liver S9 fraction stability, monkey; assay type: in vitro ADME, cynomolgus monkey; settings: monkey liver S9 1.0 mg/ml, 2 μM, 37° C.
Protocol: as §4

[10] = oil or lipid, Approximate Solubility in Excipient: Cottonseed oil
[11] = oil or lipid, Approximate Solubility in Excipient: Sesame oil
[12] = 80 mg/kg, Sesame oil + 1% Benzyl Alcohol
[13] = 123 mg/kg, Sesame oil + 1% Benzyl Alcohol
[14] = 165 mg/kg, Sesame oil + 1% Benzyl Alcohol
[15] = 30 mg/kg, IM 30 mg/kg, Sesame oil + 1% Benzyl Alcohol
[16] = 48 mg/kg, IM 48 mg/kg (deep), Sesame oil + 1% Benzyl Alcohol
[17] = 48 mg/kg, IM 48 mg/kg (shallow), Sesame oil + 1% Benzyl Alcohol
[18] = 96 mg/kg, IM 96 mg/kg, Sesame oil + 1% Benzyl Alcohol
[19] = 80 mg/kg, Cottonseed + 1% Benzyl Alcohol
[20] = 123 mg/kg, Cottonseed oil + 1% Benzyl Alcohol
[21] = 165 mg/kg, Cottonseed oil + 1% Benzyl Alcohol
[22] = 48 mg/kg, IM 48 mg/kg (deep), Cottonseed + 1% Benzyl Alcohol
[23] = 48 mg/kg, IM 48 mg/kg (shallow), Cottonseed + 1% Benzyl Alcohol

T1 sequence (P35372 whole entry): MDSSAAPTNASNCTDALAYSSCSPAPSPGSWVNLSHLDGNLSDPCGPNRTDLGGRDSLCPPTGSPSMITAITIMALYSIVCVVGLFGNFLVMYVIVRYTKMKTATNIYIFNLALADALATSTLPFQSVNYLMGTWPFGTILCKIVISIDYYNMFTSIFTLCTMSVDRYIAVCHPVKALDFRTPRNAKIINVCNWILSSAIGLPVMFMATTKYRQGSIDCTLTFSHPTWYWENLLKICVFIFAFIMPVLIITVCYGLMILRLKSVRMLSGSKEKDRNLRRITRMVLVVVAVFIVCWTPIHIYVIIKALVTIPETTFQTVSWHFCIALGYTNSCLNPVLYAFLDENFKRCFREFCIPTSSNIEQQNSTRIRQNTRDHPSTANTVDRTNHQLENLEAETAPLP

C=C1CC[C@@]2(O)C3Cc4ccc(OC(=O)OCCCCCCCCCCCC)c5c4[C@@]2(CCN3CC2CC2)[C@H]1O5 [Compound 6, (4aS,7aS,12bS)-3-(cyclopropylmethyl)-4a-hydroxy-7-methylene-2,3,4,4a,5,6,7,7a-octahydro-1H-4,12-methanobenzofuro[3,2-e]isoquinolin-9-yl dodecyl carbonate]
IC50 [1]: 14.9 nM
% remaining at 60 minutes, Dog [2]: 17.1%
solubility at 24 h [3, 10]: > 397 mg/mL
solubility at 24 h [3, 11]: > 386 mg/mL
solubility [3, 10]: > 421 mg/mL
solubility [3, 11]: > 403 mg/mL
solubility ([3]; organic solvent or mixture, Approximate Solubility in Excipient: Ethanol): 120 to 170 mg/mL (≈ 217 to 308 mM)
solubility thermodynamic [3]: 2 µg/mL (≈ 0.00362 mM)
IC50 [4]: 500 nM
AUC(0-inf) [5, 12]: 78.9 ng·h/mL
half-life [5, 12]: 340 h
AUC(0-inf) [5, 13]: 620 ng·h/mL
half-life [5, 13]: 213 h
AUC(0-inf) [5, 14]: 637 ng·h/mL
half-life [5, 14]: 204 h
% remaining at 60 minutes, Human [6]: 5.3%
IC50 [7]: 51.1 nM
AUC(0-inf) [8, 15]: 398 ng·h/mL
half-life [8, 15]: 95 h
AUC(0-inf) [8, 16]: 2190 ng·h/mL
half-life [8, 16]: 54 h
AUC(0-inf) [8, 17]: 1020 ng·h/mL
half-life [8, 17]: 135 h
AUC(0-inf) [8, 18]: 1290 ng·h/mL
half-life [8, 18]: 88 h
% remaining at 60 minutes, Monkey [9]: 0%

C=C1CC[C@@]2(O)C3Cc4ccc(OCOC(=O)OCCCCCCCCCCCC)c5c4[C@@]2(CCN3CC2CC2)[C@H]1O5 [Compound 24, (((4aS,7aS,12bS)-3-(cyclopropylmethyl)-4a-hydroxy-7-methylene-2,3,4,4a,5,6,7,7a-octahydro-1H-4,12-methanobenzofuro[3,2-e]isoquinolin-9-yl)oxy)methyl dodecyl carbonate]
IC50 [1]: 22.4 nM
% remaining at 60 minutes, Dog [2]: 3.6%
solubility at 24 h [3, 10]: > 403 mg/mL
solubility at 24 h [3, 11]: 338 to 368 mg/mL (≈ 581 to 633 mM)
solubility thermodynamic [3]: < 1 µg/mL
IC50 [4]: 2120 nM
AUC(0-inf) [5, 19]: 147 ng·h/mL
half-life [5, 19]: 398 h
AUC(0-inf) [5, 20]: 547 ng·h/mL
half-life [5, 20]: 717 h
AUC(0-inf) [5, 21]: 453 ng·h/mL
half-life [5, 21]: 851 h
% remaining at 60 minutes, Human [6]: 3.5%
IC50 [7]: 37.5 nM
AUC(0-inf) [8, 22]: 613 ng·h/mL
half-life [8, 22]: 59.6 h
AUC(0-inf) [8, 23]: 526 ng·h/mL
half-life [8, 23]: 102 h
% remaining at 60 minutes, Monkey [9]: 3%
